Data on four molecules can be found in ChEMBL document CHEMBL1148979, “Thiobutacin, a novel antifungal and antioomycete antibiotic from Lechevalieria aerocolonigenes” (2004).

Values after ≈ are worked out from the molar mass of the structure shown.

What all share (format): functional
One assay deals with Botrytis cinerea. The experiment in a line: Antifungal activity against Botrytis cinerea.
The subject of a further assay is Saccharomyces cerevisiae. Description: Antimicrobial activity against Saccharomyces cerevisiae.
The next assay deals with Phytophthora capsici. The experiment in a line: Antioomycete activity against Phytophthora capsici by microtiter broth dilution assay. (In general: Dilution methods test growth across graded concentrations, often in twofold steps.)

Usually MIC stands for the smallest concentration in the dilution series that meets the test's criterion for growth inhibition. Low readings indicate inhibition by little substance, high ones a need for much substance. Consider `CSC(CC(=O)c1ccccc1N)C(=O)O` (stereo not drawn) [THIOBUTACIN], for which the MIC in the assay on Botrytis cinerea stood at 50 µg/mL (≈ 209 µM); against Saccharomyces cerevisiae, 30 µg/mL (≈ 125 µM); in the assay on Phytophthora capsici, 10 µg/mL (≈ 41.8 µM).

In the assay on Phytophthora capsici, `COCC(=O)N(c1c(C)cccc1C)C(C)C(=O)OC` (stereo not drawn) [METALAXYL] registered an MIC of 30 µg/mL (≈ 107 µM).

As for `Clc1ccc(COC(Cn2ccnc2)c2ccc(Cl)cc2Cl)c(Cl)c1` (stereo not drawn) [MICONAZOLE], the values for the MIC in the assay with Botrytis cinerea and against Saccharomyces cerevisiae were 10 µg/mL (≈ 24 µM) and 5 µg/mL (≈ 12 µM), respectively.

Turning to NYSTATIN, the figures for the MIC against Botrytis cinerea and in the assay with Saccharomyces cerevisiae were 3 µg/mL and 7 µg/mL, respectively.
